Measured values as given in patent publication US6652853B2, “Method for treating cancer using A33 specific antibodies and chemotherapeutic agents” (Ludwig Institute for Cancer Research, priority 2001, dated 2003).

System: cell cultures (cancer cells)
Assay: Cytotoxic effects in cell cultures, QFA, calicheamicin and huA33 conjugates
Settings: added to cell cultures

## calicheamicin
  cytotoxic effects in vitro: weak cytotoxic effects
